From patent US11278534B2, “Enantiomers of substituted thiazoles as antiviral compounds” (Innovative Molecules GmbH, priority 2017, dated 2022)
In brackets after ≈: the same amount, converted by molar mass.

What was measured:
[1] = tested on: HSV-1 ACV resistant; experiment: activity selectivity assay, HSV-1 ACV resistant; type: cell-based; conditions: Human alphaherpesvirus 1
Description: (§1) HSV (HSV-1 Walki, HSV-1F, HSV-2 MS, HSV clinical isolates and HSV resistant strains) was cultivated on Vero cells (ATCC CCL-81) under the following conditions: The cells were grown in M199 medium (5% foetal calf serum, 2 mM glutamine, 100 IU/mL penicillin, 100 μg/mL streptomycin) in cell culture bottles at 37° C. and 5% CO2. The cells were splitted twice per week (1:4). For the infection, the medium was removed, the cells were washed with Hank's solution, detached using 0.05% trypsin, 0.02% EDTA and incubacted at a density of 4×10^5 cells/mL under the above-mentioned conditions for 24 h. The medium was removed and the virus solution was added at an m.o.i of <0.05 in a volume of 2 mL per 175 cm^2 surface. The infected cells were incubated at 37° C., 5% CO2 for 1 h and then the medium was made up to a volume of 50 mL per 175 cm^2 bottle. […] The virus was released by freezing (−80° C.) and thwawing (37° C.) the infected cultures twice. Cell debris was removed by centrifugation (300 g, 10 min, 4° C.) and the supernatant was frozen in aliquots at −80° C.
(§2) The virus titre was determined using a plaque assay. To this end, Vero cells were seeded in 24-well plates at a density of 4×10^5 cells per well and, after 24 h of incubation (37° C., 5% CO2) infected with 100 μL of inoculum (dilutions (10^−2 to 10^−12) of the virus stock). 1 h after the infection, the medium was removed and the cells were covered with 1 mL of overlay medium (0.5% methylcellulose, 0.22% sodium bicarbonate, 2 mM glutamine, 100 IU/mL penicillin, 100 μg/mL streptomycin, 5% foetal calf serum in MEM-Eagle medium with Earl's salt) and incubated for 3 d in a cell incubator at (37° C., 5% CO2). The cells were then fixated using 4% formaline for 1 h, washed with water, stained with Giemsa for 30 min and then washed and dried. Using a plaque viewer, the virus titre was determined.
(§3) The antiviral action was determined using a patented (DE10235967 and WO2004/015416) and subsequently published activity selectivity assay (G. Kleymann et al. J. Biomol. Screen. 2004; 9, 578) in 96- or 384-well mictrotitre plates using various cell lines of neuronal, lymphoid and epithelial origin, such as, for example, Vero (african green monkey kidney cells), MEF (murine embryonal fibroblasts), HELF (human embryonal fibroblasts), NT2 (human neuronal cell line) or Jurkat (human lymphoid T-cell line). The relevant experimental details of the above mentioned patent and publication to evaluate the antiviral activity of the invention (disclosed compounds) are described below.
(§4) The effect of the substances on the spreading of the cytopathogenic effect was determined in comparision to the reference compound acyclovir-sodium (Zovirax™), a clinically approved anti-herpes chemotherapeutic.
(§5) The compounds (50 mM stock solution dissolved in DMSO) are examined on microtitre plates (for example 96-well flat bottom cell culture plates) at a final concentration of 250 to 0.5 μM or, in case of potent antiviral compounds, 250 to 0.5 nM in 2 to 4 replications (4 to 2 substances per plate). Also examined are toxic and cytostatic effects or precipitation of the compounds. […]

[2] = tested on: HSV-2; experiment: activity selectivity assay, HSV-2 infected Vero cells; type: cell-based; conditions: Human alphaherpesvirus 2
Description: as §1, §2, §3, §4, §5

[3] = aqueous solubility (PBS, pH 7.4), shake flask; type: physicochemical
Description: The aqueous solubility (PBS, pH 7.4) was determined at Eurofins, Cerep, Panlabs according to C. A. Lipinski et al. Adv. Drug Del. Rev. 1997:46, 3. Measurement of the aqueous solubility was performed according to Lipinski, C. A. et al. Adv. Drug Del. Rev. 1997:46, 3. The relevant information from the literature is described below. […] In addition, chromatographic purity (%) was defined as the peak area of the principal peak relative to the total integrated peak area in the HPLC chromatogram of the calibration standard.

[4] = molecular target: Human Carboanhydrase II (Homo sapiens, UniProt P00918); experiment: carbonic anhydrase activity assay (pH indicator method); type: biochemical; conditions: for carbonic anhydrase inhibition: result in words
[5] = tested on: HSV-1; experiment: animal model, intranasal HSV-1 infection of mice, survival; type: in vivo, BALB/cABom strain; conditions: Human alphaherpesvirus 1, inhaled or nasal, 120 h; HSV-1, mice, treatment for 5 days; read-out: ED50 (50% of the infected animals survive)
Description: (§6) Animal experiments were performed according to patent WO2001/047904 or subsequent publications (U. A. K. Betz et al. Antimicrob. Agents Chemother. 2002:46, 1766 or G. Kleymann et al. Nat. Med. 2002; 8, 392). The relevant experimental details of the above mentioned patent and publication to evaluate the antiviral activity of the invention (disclosed compounds) in-vivo (animal models) are described below.
(§7) 6 week-old female mice, BALB/cABom strain were obtained from a commercial breeder.
(§8) Infection: The animals were anaesthetized with Et2O in a sealed glass vessel. 50 μL of a dilution of the virus stock (infection dose 5×10^4 PFU (Plaque forming units)) were introduced into the nose of the anaesthetized animals using a pipette. In 90 to 100% of the animals, this infection dose causes death by generalized infection with prominent repiratory and central-nervous symptoms on average after 5 to 8 days.
(§9) 6 hours after infection animals were treated with doses of 0.1-150 mg/kg of body mass, 3 times per day at 7 am, […] (tid) or 2 times per day at 7 am and […] (bid) or once daily at […] (od) for a period of 5 days. […] After the last administration, the animals were monitored further and the time of death was determined.

[6] = tested on: HSV-2; experiment: animal model, intranasal HSV-2 infection of mice, survival; type: in vivo, BALB/cABom strain; conditions: Human alphaherpesvirus 2, inhaled or nasal, 120 h; HSV-2, mice, treatment for 5 days; read-out: ED50 (50% of the infected animals survive)
Description: as §6, §7, §8, §9

[7] = tested on: HSV-1; experiment: activity selectivity assay, HSV-1 infected Vero cells; type: cell-based; conditions: Human alphaherpesvirus 1
Description: as §1, §2, §3, §4, §5

| SMILES | IC50 [1] [µM] | IC50 [2] [µM] | solubility at 24 h ([3]; aqueous buffer, kinetic from dmso stock, pH 7.4, shake flask, 24 h incubation, rt, read-out: Solubility [μM] (PBS, pH 7.4, 200 μM Test concentration)) [µM] | increase of aqueous solubility in comparison to Example 87 (WO2001/047904) ([3]; pH 7.4) | IC50 [4] [µM] | carbonic anhydrase inhibition [4] | ED50 [5] [mg/kg] | ED50 [6] [mg/kg] | IC50 [7] [µM] |
| --- | --- | --- | --- | --- | --- | --- | --- | --- | --- |
| Cc1nc(N(C)C(=O)Cc2ccc(-c3cc(F)ccc3F)cc2)sc1S(C)(=N)=O (racemic) [Example 7, 2-(2′,5′-Difluoro-[1,1′-biphenyl]-4-yl)-N-methyl-N-(4-methyl-5-(S-methylsulfonimidoyl)thiazol-2-yl)acetamide] | 0.025 to 0.1 | 0.025 to 0.1 | 5 (≈ 2.18 µg/mL) | at least one order of mangitude | > 10 | no or significantly reduced carbonic anhydrase inhibition | < 10 | < 10 | 0.025 to 0.1 |
| Cc1nc(N(C)C(=O)Cc2ccc(-c3cc(F)ccc3F)cc2)sc1[S@@](C)(=N)=O [Example 7(−), (−)-(S)-2-(2′,5′-Difluoro-[1,1′-biphenyl]-4-yl)-N-methyl-N-(4-methyl-5-(S-methylsulfonimidoyl)thiazol-2-yl)acetamide] | 0.01 to 0.05 | 0.01 to 0.05 |  |  | > 10 | no or significantly reduced carbonic anhydrase inhibition | < 5 |  | 0.01 to 0.05 |
